Assay results as given in ChEMBL document CHEMBL3297650, “Discovery of novel oxindole derivatives as potent α-glucosidase inhibitors” (Bioorg Med Chem, 2014).

Experiment: Inhibition of yeast alpha-glucosidase (unknown origin) using para-nitrophenyl glucopyranoside as substrate preincubated for 10 mins before substrate addition measured after 30 mins by spectrophotometry
Set-up: species or system Saccharomyces cerevisiae

IC50 [µM] | SMILES
51.8 | CSc1ccc(/C=C2/C(=O)Nc3cc(Cl)ccc32)cc1
11.4 | O=C1Nc2cc(Cl)ccc2/C1=C\c1ccccc1[N+](=O)[O-]
17.3 | O=C1Nc2cc(Cl)ccc2/C1=C\c1c2ccccc2cc2ccccc12
139 | COc1cccc(/C=C2/C(=O)Nc3cc(Cl)ccc32)c1
2.71 | O=C1Nc2cc(Cl)ccc2/C1=C\c1ccc(O)c(O)c1
84.4 | O=C1Nc2cc(Cl)ccc2/C1=C\c1ccc([N+](=O)[O-])cc1
108 | COc1ccc(/C=C2/C(=O)Nc3cc(Cl)ccc32)cc1
82.2 | COc1ccc(O)c(/C=C2/C(=O)Nc3cc(Cl)ccc32)c1
55.6 | O=C1Nc2cc(Cl)ccc2/C1=C\c1ccc(Cl)cc1Cl
411 | COc1ccc(/C=C2/C(=O)Nc3cc(Cl)ccc32)cc1OC
73.1 | O=C1Nc2cc(Cl)ccc2/C1=C\c1ccccc1Cl
15.2 | O=C1Nc2cc(Cl)ccc2/C1=C\c1cccc(O)c1
341 | COc1ccc(/C=C2/C(=O)Nc3cc(Cl)ccc32)c(OC)c1OC
37.9 | CCOc1cccc(/C=C2/C(=O)Nc3cc(Cl)ccc32)c1O
115 | Cc1ccc(/C=C2/C(=O)Nc3cc(Cl)ccc32)cc1
24.7 | O=C1Nc2cc(Cl)ccc2/C1=C\c1ccc(O)cc1
14.3 | CC(C)c1ccc(/C=C2/C(=O)Nc3cc(Cl)ccc32)cc1
110 | O=Cc1ccc(/C=C2/C(=O)Nc3cc(Cl)ccc32)cc1
99.7 | CCOc1ccc(/C=C2/C(=O)Nc3cc(Cl)ccc32)cc1
91.2 | CN(C)c1ccc(/C=C2/C(=O)Nc3cc(Cl)ccc32)cc1
102 | O=C1Nc2cc(Cl)ccc2/C1=C\c1cccc2ccccc12
173 | O=C1Nc2cc(Cl)ccc2/C1=C\c1ccco1
72.2 | COc1cccc(/C=C2/C(=O)Nc3cc(Cl)ccc32)c1O
196 | O=C1Nc2cc(Cl)ccc2/C1=C\c1ccccc1
52.9 | O=C1Nc2cc(Cl)ccc2/C1=C\c1c(Cl)cccc1Cl
